Drawing on BindingDB's records for doi:10.1016/s0960-894x(00)00478-9 (Laval University, 2001), this text covers Ki for one compound.

Experiment [1] is described as follows: The compound was evaluated for inhibition of Glutaminyl-tRNA synthetase with respect to glutamine.
Experiment [2] concerns the target Glutamine--tRNA ligase (Escherichia coli) (UniProt P00962). Description: The compound was evaluated for inhibition of Glutaminyl-tRNA synthetase for Escherichia coli with respect to ATP.

Glutamine--tRNA ligase (Escherichia coli), sequence (P00962 whole entry, looked up): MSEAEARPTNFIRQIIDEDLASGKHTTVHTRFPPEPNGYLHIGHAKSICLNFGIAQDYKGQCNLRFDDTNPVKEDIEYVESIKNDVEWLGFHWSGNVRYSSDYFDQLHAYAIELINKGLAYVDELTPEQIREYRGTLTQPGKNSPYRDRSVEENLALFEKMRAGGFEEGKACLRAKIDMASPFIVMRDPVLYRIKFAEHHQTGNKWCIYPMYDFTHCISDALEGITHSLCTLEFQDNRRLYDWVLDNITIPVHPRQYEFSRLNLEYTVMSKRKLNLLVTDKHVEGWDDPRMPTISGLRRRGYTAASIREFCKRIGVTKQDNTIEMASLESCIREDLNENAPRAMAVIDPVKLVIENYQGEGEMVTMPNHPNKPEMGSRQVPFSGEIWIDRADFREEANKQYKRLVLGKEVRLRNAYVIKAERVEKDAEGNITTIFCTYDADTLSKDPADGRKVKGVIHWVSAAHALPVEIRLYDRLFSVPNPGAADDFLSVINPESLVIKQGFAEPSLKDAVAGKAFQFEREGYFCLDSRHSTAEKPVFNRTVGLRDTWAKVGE

By Ki is commonly meant a measure of affinity in units of concentration, obtained from inhibition or displacement. A high value points to weaker binding. For `NC(=O)CCC(N)COP(=O)(O)OC[C@H]1OC(n2cnc3c(N)ncnc32)[C@H](O)[C@@H]1O` (some centres not stated), the Ki in experiment [1] came to 280 nM; in experiment [2], 860 nM.
